Measurements published in PubChem BioAssay AID1259411 (Chemical Carcinogenesis Research Information System (CCRIS), 2018).
Calls of active or inactive are those of the source. No rule for the calls is given here.

Tested on: rodent carcinogenicity bioassays, tumor incidence
Test: CCRIS carcinogenicity studies
Conditions: Dose: 0
Procedure, shortened: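 NCI-built, expert-reviewed records of carcinogenicity and related test outcomes (mutagenicity, tumor promotion/inhibition) compiled from published and report sources, historical span 1985-2011, not updated.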

Question: Which results are given for `Cc1nc(N)cc2[nH]c3ccccc3c12`?
Answer: carcinogen call (Species: MOUSE, Strain/Sex: CDF1/FEMALE, Route: ORAL, 200 PPM IN DIET FOR 621 D, Tumor Site: Type of Lesion: LIVER: HEPATOCELLULAR CARCINOMA): active; positive; carcinogen call (Species: MOUSE, Strain/Sex: DDY/FEMALE, Route: BLADDER IMPLANT, 5% IN PARAFFIN PELLET (STUDY DURATION: 40 WK), Tumor Site: Type of Lesion: URINARY BLADDER: TRANSITIONAL CELL CARCINOMA): active; positive; carcinogen call (Species: RAT, Strain/Sex: F344/FEMALE, Route: ORAL, 30, 100 PPM IN DIET FOR 112 WK (STUDY DURATION: 112 WK), 30, 100 PPM IN DIET FOR 112 WK (STUDY DURATION: 112 WK), Tumor Site: Type of Lesion: MAMMARY GLAND: FIBROADENOMA OR FIBROMA, HEMATOPOIETIC SYSTEM: MALIGNANT LYMPHOMA, CLITORAL GLAND: ADENOMA, Tumor Site: Type of Lesion: MAMMARY GLAND: FIBROADENOMA OR FIBROMA, HEMATOPOIETIC SYSTEM: MALIGNANT LYMPHOMA, CLITORAL GLAND: ADENOMA): active; positive; carcinogen call (Species: RAT, Strain/Sex: F344/MALE, Route: ORAL, 30, 100 PPM IN DIET FOR 112 WK (STUDY DURATION: 112 WK), 30, 100 PPM IN DIET FOR 112 WK (STUDY DURATION: 112 WK), Tumor Site: Type of Lesion: LIVER: HEPATOCELLULAR ADENOMA, URINARY BLADDER: TRANSITIONAL CELL PAPILLOMA, MAMMARY GLAND: FIBROADENOMA OR FIBROMA, Tumor Site: Type of Lesion: LIVER: HEPATOCELLULAR ADENOMA, URINARY BLADDER: TRANSITIONAL CELL PAPILLOMA, MAMMARY GLAND: FIBROADENOMA OR FIBROMA): active; positive

Question: What does the source list for `CC1=CC(=O)CC(C)(C)C1`?
Answer: carcinogen call (Species: MOUSE, Strain/Sex: B6C3F1/FEMALE, Route: GAVAGE, 250, 500 MG/KG IN CORN OIL 5 D/WK FOR 103 WK (STUDY DURATION: 105 WK), 250, 500 MG/KG IN CORN OIL 5 D/WK FOR 103 WK (STUDY DURATION: 105 WK)): inactive; negative; carcinogen call (Species: MOUSE, Strain/Sex: B6C3F1/MALE, Route: GAVAGE, 250, 500 MG/KG IN CORN OIL 5 D/WK FOR 103 WK (STUDY DURATION: 105 WK), 250, 500 MG/KG IN CORN OIL 5 D/WK FOR 103 WK (STUDY DURATION: 105 WK), Tumor Site: Type of Lesion: LIVER: HEPATOCELLULAR ADENOMA OR CARCINOMA, INTEGUMENTARY SYSTEM: MESENCHYMAL TUMOR, HEMATOPOIETIC SYSTEM: MALIGNANT LYM, Tumor Site: Type of Lesion: LIVER: HEPATOCELLULAR ADENOMA OR CARCINOMA, INTEGUMENTARY SYSTEM: MESENCHYMAL TUMOR, HEMATOPOIETIC SYSTEM: MALIGNANT LYM): equivocal; carcinogen call (Species: RAT, Strain/Sex: F344/FEMALE, Route: GAVAGE, 250, 500 MG/KG IN CORN OIL 5 D/WK FOR 103 WK (STUDY DURATION: 105 WK), 250, 500 MG/KG IN CORN OIL 5 D/WK FOR 103 WK (STUDY DURATION: 105 WK)): inactive; negative; carcinogen call (Species: RAT, Strain/Sex: F344/MALE, Route: GAVAGE, 250, 500 MG/KG IN CORN OIL 5 D/WK FOR 103 WK (STUDY DURATION: 105 WK), 250, 500 MG/KG IN CORN OIL 5 D/WK FOR 103 WK (STUDY DURATION: 105 WK), Tumor Site: Type of Lesion: PREPUTIAL GLAND: CARCINOMA, KIDNEY: TUBULAR CELL ADENOMA OR ADENOCARCINOMA, PANCREAS: ACINAR CELL ADENOMA, Tumor Site: Type of Lesion: PREPUTIAL GLAND: CARCINOMA, KIDNEY: TUBULAR CELL ADENOMA OR ADENOCARCINOMA, PANCREAS: ACINAR CELL ADENOMA): active; positive

Question: How did the carcinogen call (Species: RAT, Strain/Sex: AF/HAN, Route: INHALATION, 1000 FIBERS/ML IN AIR 7 HR/D 5 D/WK FOR 1 YR (STUDY DURATION: LIFESPAN), Tumor Site: Type of Lesion: LUNG: ADENOMA, CARCINOMA) turn out when `[C-]#[Si+]` was run?
Answer: active; positive

Question: What about the carcinogen call (Species: RAT, Strain/Sex: F344/FEMALE, Route: INTRAPERITONEAL, 20 MG SILICON CARBIDE WHISKERS ONCE (STUDY DURATION: LIFESPAN), Tumor Site: Type of Lesion: PLEURAL CAVITY: MESOTHELIOMA) of the same compound?
Answer: active; positive

Question: `CCCCN(C)N=O` was tested. Which carcinogen call (Species: HAMSTER, Strain/Sex: SYRIAN/FEMALE, Route: GAVAGE, 2.5, 5 MG/KG 1/WK FOR 23-30 WK (TOTAL DOSE: 0; 0.65; 1.0 MMOL) (STUDY DURATION: LIFETIME), 2.5, 5 MG/KG 1/WK FOR 23-30 WK (TOTAL DOSE: 0; 0.65; 1.0 MMOL) (STUDY DURATION: LIFETIME), Tumor Site: Type of Lesion: LIVER: HEPATOCELLULAR ADENOMA, LUNG: ALVEOLAR/BRONCHIAL ADENOMA, NASAL MUCOSA: CARCINOMA, ADENOMA, FORESTOMACH: SQUAMOUS, Tumor Site: Type of Lesion: LIVER: HEPATOCELLULAR ADENOMA, LUNG: ALVEOLAR/BRONCHIAL ADENOMA, NASAL MUCOSA: CARCINOMA, ADENOMA, FORESTOMACH: SQUAMOUS) did it give?
Answer: active; positive

Question: What about the carcinogen call (Species: HAMSTER, Strain/Sex: SYRIAN/MALE, Route: GAVAGE, 2.5, 5 MG/KG 1/WK FOR 23-30 WK (TOTAL DOSE: 0; 0.65; 1.0 MMOL) (STUDY DURATION: LIFETIME), 2.5, 5 MG/KG 1/WK FOR 23-30 WK (TOTAL DOSE: 0; 0.65; 1.0 MMOL) (STUDY DURATION: LIFETIME), Tumor Site: Type of Lesion: LIVER: HEPATOCELLULAR ADENOMA, HEMANGIOSARCOMA, LUNG: ALVEOLAR/BRONCHIAL ADENOMA, NASAL MUCOSA: CARCINOMA, ADENOMA, FORE, Tumor Site: Type of Lesion: LIVER: HEPATOCELLULAR ADENOMA, HEMANGIOSARCOMA, LUNG: ALVEOLAR/BRONCHIAL ADENOMA, NASAL MUCOSA: CARCINOMA, ADENOMA, FORE) of the same compound?
Answer: active; positive

Question: What about the carcinogen call (Species: RAT, Strain/Sex: F344/FEMALE, Route: INTRAVESICULAR, 3 MG IN 0.2 ML ETHANOL: DEIONIZED WATER (1:3) 2/WK FOR 17 WK (TOTAL DOSE 0.9 MMOL) (STUDY DURATION: LIFESPAN), Tumor Site: Type of Lesion: ESOPHAGUS: TUMOR, LIVER: HEMANGIOSARCOMA) of the same compound?
Answer: active; positive

Question: How did the carcinogen call (Species: Mouse, Strain/Sex: CD-1/Female (60/Group), Route: Oral, 30, 150, 750 mg/kg in diet for 104 wk, 30, 150, 750 mg/kg in diet for 104 wk, Tumor Site: Type of Lesion: Upper digestive tract: squamous cell papilloma and carcinoma (0/60 and 0/60 in controls vs 0/60, 3/60, and 4/60, respect) turn out when `Nc1nc2c(ncn2[C@@H]2C[C@H](CO)[C@H]2CO)c(=O)[nH]1` was run?
Answer: active; positive

Question: And the carcinogen call (Species: Mouse, Strain/Sex: CD-1/Male (60/Group), Route: Oral, 10, 50, 250 mg/kg in diet for 104 wk, 10, 50, 250 mg/kg in diet for 104 wk, Tumor Site: Type of Lesion: Upper digestive tract: squamous cell papilloma or carcinoma (0/60 and 0/60 in controls vs 0/60, 3/60, and 4/60, respecti)?
Answer: active; positive

Question: With `OB(O)O` as the compound, how does the carcinogen call (Species: MOUSE, Strain/Sex: B6C3F1/FEMALE, Route: ORAL, 2500, 5000 PPM IN DIET FOR 103 WK (STUDY DURATION: 105 WK), 2500, 5000 PPM IN DIET FOR 103 WK (STUDY DURATION: 105 WK)) read?
Answer: inactive; negative

Question: What about the carcinogen call (Species: MOUSE, Strain/Sex: B6C3F1/MALE, Route: ORAL, 2500, 5000 PPM IN DIET FOR 103 WK (STUDY DURATION: 105 WK), 2500, 5000 PPM IN DIET FOR 103 WK (STUDY DURATION: 105 WK)) of the same compound?
Answer: inactive; negative
